Numbers after ± are expanded uncertainties.
Conditions: Liquid

Row | SMILES | vapor or sublimation pressure (283.15 K) [kPa] | vapor or sublimation pressure (288.15 K) [kPa] | vapor or sublimation pressure (293.15 K) [kPa] | vapor or sublimation pressure (298.15 K) [kPa] | vapor or sublimation pressure (303.15 K) [kPa] | vapor or sublimation pressure (308.15 K) [kPa] | vapor or sublimation pressure (313.15 K) [kPa] | vapor or sublimation pressure (318.15 K) [kPa] | vapor or sublimation pressure (323.15 K) [kPa]
1 | ClC(Cl)C(Cl)Cl [1,1,2,2-tetrachloroethane] | 0.263 ± 0.008 | 0.373 ± 0.01 | 0.521 ± 0.013 | 0.711 ± 0.017 | 0.98 ± 0.022 | 1.289 ± 0.028 | 1.701 ± 0.027 | 2.236 ± 0.029 | 2.86 ± 0.032
2 | c1ccccc1 [benzene] | 6.078 ± 0.045 | 7.849 ± 0.052 | 10.03 ± 0.061 | 12.69 ± 0.072 | 15.93 ± 0.085 | 19.81 ± 0.1 | 24.4 ± 0.12 | 29.85 ± 0.14 | 36.24 ± 0.17
3 | ClC(Cl)=C(Cl)Cl [tetrachloroethene] | 1.023 ± 0.023 | 1.4 ± 0.026 | 1.861 ± 0.028 | 2.462 ± 0.03 | 3.205 ± 0.033 | 4.117 ± 0.037 | 5.253 ± 0.041 | 6.621 ± 0.047 | 8.286 ± 0.054
